# Test results taken from patent publication US20250353864A1, “INDAZOLE CONTAINING MACROCYCLES AND THEIR USE” (BLOSSOMHILL THERAPEUTICS, INC., priority 2022, published 2025).
# How the values were obtained:
# Type in all cases: biochemical
# [1] = target: EGFR WT (Homo sapiens (Human), UniProt P00533); assay: HotSpot radiometric kinase assay (Reaction Biology), EGFR WT; details: 10 μM ATP
# Method in brief: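 IC50 values derive from curve fits of 33P incorporation measured by P81 filter binding. ATP was 10 μM final; incubation lasted 120 min at room temperature after ~20 min compound preincubation.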
# [2] = target: EGFR (D770_N771insNPG) (Homo sapiens (Human), UniProt P00533, INS770NPG); assay: HotSpot radiometric kinase assay, EGFR (D770_N771insNPG); details: 10 μM ATP, read-out: EGFR (Δ770_N771insNPG) IC50
# Chain of EGFR (D770_N771insNPG) (P00533 other isoform, or with tags, fused parts or gaps del 1-668/ins NPG behind 770 limits assumed): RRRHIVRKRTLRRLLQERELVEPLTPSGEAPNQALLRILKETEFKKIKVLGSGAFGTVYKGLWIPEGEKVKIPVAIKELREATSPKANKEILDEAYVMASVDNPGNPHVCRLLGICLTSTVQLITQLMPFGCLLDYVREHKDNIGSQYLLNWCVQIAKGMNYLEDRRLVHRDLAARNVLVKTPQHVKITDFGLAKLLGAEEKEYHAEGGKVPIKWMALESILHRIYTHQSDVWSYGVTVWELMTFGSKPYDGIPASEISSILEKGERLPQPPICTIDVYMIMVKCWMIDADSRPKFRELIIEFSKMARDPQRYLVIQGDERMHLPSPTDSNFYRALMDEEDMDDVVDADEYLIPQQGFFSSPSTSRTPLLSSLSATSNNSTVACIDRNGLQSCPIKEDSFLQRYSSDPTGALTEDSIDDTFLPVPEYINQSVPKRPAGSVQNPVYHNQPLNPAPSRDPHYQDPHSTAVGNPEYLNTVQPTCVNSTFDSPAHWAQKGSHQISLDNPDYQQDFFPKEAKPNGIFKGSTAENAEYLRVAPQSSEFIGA
# Method in brief: (§1)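 IC50 values come from curve fits of ^33P incorporation captured on P81 filters after acid washing. Kinase reactions ran 120 min at room temperature with 10 μM ATP, added about 20 min after compound. Buffer was Hepes pH 7.5 containing Mg, DTT and 1% DMSO.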
# [3] = target: EGFR Δ746-750 mutant (Homo sapiens (Human), UniProt P00533, DEL746-750); assay: HotSpot radiometric kinase assay, EGFR Δ746-750 mutant; details: 10 μM ATP
# Method in brief: as §1
# [4] = target: EGFR Δ746-750/C797S mutant (Homo sapiens (Human), UniProt P00533, C797S/DEL746-750); assay: HotSpot radiometric kinase assay, EGFR Δ746-750/C797S mutant; details: 10 μM ATP
# Chain of EGFR Δ746-750/C797S mutant (P00533 other isoform, or with tags, fused parts or gaps C797S/del 1-668/del 746-750 limits assumed): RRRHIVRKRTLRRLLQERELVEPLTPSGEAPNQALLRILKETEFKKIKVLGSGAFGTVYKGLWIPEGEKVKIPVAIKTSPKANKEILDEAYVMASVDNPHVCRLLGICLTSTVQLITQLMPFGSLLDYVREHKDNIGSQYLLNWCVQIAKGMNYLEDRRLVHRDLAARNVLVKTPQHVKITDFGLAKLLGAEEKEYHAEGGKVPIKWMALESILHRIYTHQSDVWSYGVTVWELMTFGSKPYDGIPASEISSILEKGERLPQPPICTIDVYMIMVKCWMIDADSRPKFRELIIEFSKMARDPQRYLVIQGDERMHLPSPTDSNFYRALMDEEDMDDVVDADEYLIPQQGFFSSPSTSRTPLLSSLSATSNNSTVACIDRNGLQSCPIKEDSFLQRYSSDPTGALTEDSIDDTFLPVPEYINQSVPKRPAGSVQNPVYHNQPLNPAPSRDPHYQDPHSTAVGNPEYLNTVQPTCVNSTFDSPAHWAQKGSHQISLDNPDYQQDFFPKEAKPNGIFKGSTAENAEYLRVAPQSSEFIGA
# Method in brief: as §1
# [5] = target: EGFR L858R mutant (Homo sapiens (Human), UniProt P00533, L858R); assay: HotSpot radiometric kinase assay, EGFR L858R mutant; details: 10 μM ATP
# Method in brief: as §1
# [6] = target: EGFR L858R/T790M mutant (Homo sapiens (Human), UniProt P00533, L858R/T790M); assay: HotSpot radiometric kinase assay, EGFR L858R/T790M mutant; details: 10 μM ATP
# Method in brief: as §1
# [7] = target: EGFR L858R/T790M/C797S mutant (Homo sapiens (Human), UniProt P00533, C797S/L858R/T790M); assay: HotSpot radiometric kinase assay, EGFR L858R/T790M/C797S mutant; details: 10 μM ATP
# Chain of EGFR L858R/T790M/C797S mutant (P00533 25-1210 T790M/C797S/L858R): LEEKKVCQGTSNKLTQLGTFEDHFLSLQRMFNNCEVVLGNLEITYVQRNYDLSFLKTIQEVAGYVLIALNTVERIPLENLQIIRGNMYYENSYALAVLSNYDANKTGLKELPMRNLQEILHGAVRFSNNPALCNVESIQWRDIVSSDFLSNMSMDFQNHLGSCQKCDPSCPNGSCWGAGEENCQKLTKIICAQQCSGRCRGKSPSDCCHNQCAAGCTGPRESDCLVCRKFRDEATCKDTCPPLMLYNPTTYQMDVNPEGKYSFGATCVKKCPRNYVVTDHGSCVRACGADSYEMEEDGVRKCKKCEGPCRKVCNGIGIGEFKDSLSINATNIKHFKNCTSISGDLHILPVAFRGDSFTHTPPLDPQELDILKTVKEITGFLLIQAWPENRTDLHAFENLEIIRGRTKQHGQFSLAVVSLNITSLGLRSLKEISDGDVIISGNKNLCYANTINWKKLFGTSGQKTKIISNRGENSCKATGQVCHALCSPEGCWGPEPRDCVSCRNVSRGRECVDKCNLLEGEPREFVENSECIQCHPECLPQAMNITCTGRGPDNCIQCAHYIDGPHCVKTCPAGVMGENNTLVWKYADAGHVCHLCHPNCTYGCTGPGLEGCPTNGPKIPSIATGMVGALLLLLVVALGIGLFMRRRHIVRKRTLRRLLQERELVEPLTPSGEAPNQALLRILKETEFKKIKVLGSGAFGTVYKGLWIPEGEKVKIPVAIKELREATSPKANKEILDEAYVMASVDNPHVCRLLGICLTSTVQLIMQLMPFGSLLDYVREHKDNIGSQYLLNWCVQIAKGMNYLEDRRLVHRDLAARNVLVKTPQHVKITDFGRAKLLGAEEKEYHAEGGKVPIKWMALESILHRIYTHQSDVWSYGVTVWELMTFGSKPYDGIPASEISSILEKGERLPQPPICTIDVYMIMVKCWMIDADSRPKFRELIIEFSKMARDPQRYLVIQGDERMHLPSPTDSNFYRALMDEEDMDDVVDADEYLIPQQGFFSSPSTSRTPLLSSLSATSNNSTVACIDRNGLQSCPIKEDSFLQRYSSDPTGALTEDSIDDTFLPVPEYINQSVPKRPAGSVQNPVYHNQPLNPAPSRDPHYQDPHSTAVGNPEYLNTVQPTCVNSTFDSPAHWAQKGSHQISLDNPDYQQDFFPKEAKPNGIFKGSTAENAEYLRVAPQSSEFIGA
# Method in brief: as §1
# [8] = target: CLK1 (Homo sapiens (Human), UniProt P49759); assay: Inhibition of CLK1 kinase activity evaluated at Nanosyn (ADP-Glo); details: ADP-Glo luminescence
# Chain of CLK1 (P49759 whole entry): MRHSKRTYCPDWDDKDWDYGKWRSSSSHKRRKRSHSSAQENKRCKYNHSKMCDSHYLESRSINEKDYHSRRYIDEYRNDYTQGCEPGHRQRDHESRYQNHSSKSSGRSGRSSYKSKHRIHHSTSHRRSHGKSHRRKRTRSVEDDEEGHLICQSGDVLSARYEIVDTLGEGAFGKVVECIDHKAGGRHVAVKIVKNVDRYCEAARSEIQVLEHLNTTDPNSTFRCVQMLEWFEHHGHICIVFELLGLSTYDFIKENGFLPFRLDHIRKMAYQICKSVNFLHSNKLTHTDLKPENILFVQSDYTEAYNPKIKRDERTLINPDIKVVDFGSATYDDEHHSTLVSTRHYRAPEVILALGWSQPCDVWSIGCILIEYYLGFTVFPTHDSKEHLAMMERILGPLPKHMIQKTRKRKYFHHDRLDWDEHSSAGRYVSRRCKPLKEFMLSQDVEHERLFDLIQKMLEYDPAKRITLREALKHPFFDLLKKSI
# Method in brief: (§2)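 Percent inhibition derived from luminescent ADP detection (ADP-Glo), normalised to DMSO-only and enzyme-free wells. Reactions ran in HEPES pH 7.5 buffer with Mg2+, Triton X-100 and BSA, 1% DMSO, ATP-initiated, for an assay-specific time.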
# [9] = target: CLK2 (Homo sapiens (Human), UniProt P49760); assay: Inhibition of CLK2 kinase activity evaluated at Nanosyn (ADP-Glo); details: ADP-Glo luminescence
# Method in brief: as §2
# [10] = target: CLK3 (Homo sapiens (Human), UniProt P49761); assay: Inhibition of CLK3 kinase activity evaluated at Nanosyn (ADP-Glo); details: ADP-Glo luminescence
# Chain of CLK3 (P49761 whole entry): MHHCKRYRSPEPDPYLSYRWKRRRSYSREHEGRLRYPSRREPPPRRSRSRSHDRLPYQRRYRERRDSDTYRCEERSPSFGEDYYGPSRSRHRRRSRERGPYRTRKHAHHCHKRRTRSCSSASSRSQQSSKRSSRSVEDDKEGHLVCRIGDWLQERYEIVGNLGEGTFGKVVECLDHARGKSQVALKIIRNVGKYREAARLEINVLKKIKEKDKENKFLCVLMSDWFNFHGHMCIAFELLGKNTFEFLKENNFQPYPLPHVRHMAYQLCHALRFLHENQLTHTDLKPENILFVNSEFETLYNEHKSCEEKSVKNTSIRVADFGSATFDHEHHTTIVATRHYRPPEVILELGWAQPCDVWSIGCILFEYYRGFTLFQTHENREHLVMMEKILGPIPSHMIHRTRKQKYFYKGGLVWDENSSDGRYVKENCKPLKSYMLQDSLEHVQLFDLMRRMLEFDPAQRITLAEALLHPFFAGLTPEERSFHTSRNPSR
# Method in brief: as §2
# [11] = target: CLK4 (Homo sapiens (Human), UniProt Q9HAZ1); assay: Inhibition of CLK4 kinase activity evaluated at Nanosyn (ADP-Glo); details: ADP-Glo luminescence
# Chain of CLK4 (Q9HAZ1 whole entry): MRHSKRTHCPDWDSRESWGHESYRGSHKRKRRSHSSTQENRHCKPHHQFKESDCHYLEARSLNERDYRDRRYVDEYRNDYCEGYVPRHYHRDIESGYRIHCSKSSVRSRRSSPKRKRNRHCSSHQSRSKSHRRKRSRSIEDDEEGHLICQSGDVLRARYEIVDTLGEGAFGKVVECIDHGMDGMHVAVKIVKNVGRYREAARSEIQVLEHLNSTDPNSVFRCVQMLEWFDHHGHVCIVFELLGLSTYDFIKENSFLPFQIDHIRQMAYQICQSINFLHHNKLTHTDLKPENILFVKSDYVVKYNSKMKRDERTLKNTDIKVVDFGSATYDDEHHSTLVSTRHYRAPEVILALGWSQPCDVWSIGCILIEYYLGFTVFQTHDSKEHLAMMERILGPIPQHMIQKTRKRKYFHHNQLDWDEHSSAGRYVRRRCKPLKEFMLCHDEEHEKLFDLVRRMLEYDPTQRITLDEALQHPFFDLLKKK
# Method in brief: as §2
# Chain of EGFR WT (P00533 25-1210): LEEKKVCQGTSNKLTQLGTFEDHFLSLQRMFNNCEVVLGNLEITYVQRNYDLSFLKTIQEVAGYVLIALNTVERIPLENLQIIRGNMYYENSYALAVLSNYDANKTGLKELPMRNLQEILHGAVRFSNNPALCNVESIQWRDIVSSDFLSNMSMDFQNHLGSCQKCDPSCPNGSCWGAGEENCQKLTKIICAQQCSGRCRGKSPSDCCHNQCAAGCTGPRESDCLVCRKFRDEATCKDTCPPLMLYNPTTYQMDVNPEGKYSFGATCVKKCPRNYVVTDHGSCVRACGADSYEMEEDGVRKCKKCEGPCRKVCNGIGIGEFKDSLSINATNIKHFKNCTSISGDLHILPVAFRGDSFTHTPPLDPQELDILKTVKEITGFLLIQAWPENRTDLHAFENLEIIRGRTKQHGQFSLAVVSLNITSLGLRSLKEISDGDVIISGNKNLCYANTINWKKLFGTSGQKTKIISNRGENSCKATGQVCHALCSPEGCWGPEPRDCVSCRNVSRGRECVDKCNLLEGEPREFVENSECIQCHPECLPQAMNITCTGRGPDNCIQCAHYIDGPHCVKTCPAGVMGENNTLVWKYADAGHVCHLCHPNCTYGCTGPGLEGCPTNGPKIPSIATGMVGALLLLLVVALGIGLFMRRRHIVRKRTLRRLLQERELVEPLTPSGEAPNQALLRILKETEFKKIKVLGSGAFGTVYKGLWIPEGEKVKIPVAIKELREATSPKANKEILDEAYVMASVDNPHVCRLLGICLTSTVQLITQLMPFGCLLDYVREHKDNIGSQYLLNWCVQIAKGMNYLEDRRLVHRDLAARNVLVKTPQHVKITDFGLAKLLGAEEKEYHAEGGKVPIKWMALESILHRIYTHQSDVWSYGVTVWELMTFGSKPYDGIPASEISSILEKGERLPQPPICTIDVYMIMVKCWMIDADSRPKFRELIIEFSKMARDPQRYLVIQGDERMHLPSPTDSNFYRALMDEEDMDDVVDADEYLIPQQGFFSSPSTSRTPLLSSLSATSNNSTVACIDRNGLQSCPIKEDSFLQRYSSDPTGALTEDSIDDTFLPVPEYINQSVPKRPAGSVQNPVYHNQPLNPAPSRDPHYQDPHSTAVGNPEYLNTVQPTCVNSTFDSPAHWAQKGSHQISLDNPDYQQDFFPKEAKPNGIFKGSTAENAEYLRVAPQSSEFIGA
Compound,IC50 [1] [nM],IC50 [2] [nM],IC50 [3] [nM],IC50 [4] [nM],IC50 [5] [nM],IC50 [6] [nM],IC50 [7] [nM],IC50 [8] [nM],IC50 [9] [nM],IC50 [10] [nM],IC50 [11] [nM]
"CCN1Cc2c(c(OC(C)C)nn2CC(C)(C)O)/C=C/c2n[nH]c3ccc(cc23)-c2cnn(C)c2O[C@@H](C)C1 [Example 262, 1-{(10S,17E)-12-ethyl-8,10-dimethyl-16-[(propan-2-yl)oxy]-2,8,10,11,12,13-hexahydro-14H-3,5-ethenotripyrazolo[3,4-f:3′,4′-j:4″,3″-n][1,4]oxazacyclopentadecin-14-yl}-2-methylpropan-2-ol]",94.5,98.3,8.48,7.12,40.1,4.98,1.67,0.82,0.49,104,1.5
"CN1CCC(c2ccc3c(c2)O[C@@H]2CCN(CCOc4c(cnn4C)-c4ccc5[nH]nc(c5c4)/C=C/3)C2=O)CC1 [Example 112, (10R,16E)-3-methyl-13-(1-methylpiperidin-4-yl)-3,5,6,9,10,19-hexahydro-8H-20,22-etheno-7,10-methanodipyrazolo[3,4-i:4′,3′-m][1,8,5]benzodioxazacyclooctadecin-25-one]",8.28,1.12,0.61,2.75,1.31,0.21,0.98,0.17,0.04,0.19,0.5
"CC(C)Oc1nn(CCO)c2c1/C=C/c1n[nH]c3ccc(cc13)-c1cnn(C)c1O[C@@H](C)C(=O)N(C)C2 [Example 220, (10S,17E)-14-(2-hydroxyethyl)-8,10,12-trimethyl-16-[(propan-2-yl)oxy]-2,12,13,14-tetrahydro-8H-3,5-ethenotripyrazolo[3,4-f:3′,4′-j:4″,3″- n][1,4]oxazacyclopentadecin-11(10H)-one]",1440,575,398,475,515,23.1,27.5,2.76,8.84,1,4.31
"CCOc1nn(C)c2c1/C=C/c1n[nH]c3cc(F)c(cc13)-c1cnn(C)c1O[C@@H](C)CN(CC)C2 [Example 206, (10S,17E)-16-ethoxy-12-ethyl-19-fluoro-8,10,14-trimethyl-2,10,11,12,13,14-hexahydro-8H-3,5-ethenotripyrazolo[3,4-f:3′,4′-j:4″,3″-n][1,4]oxazacyclopentadecine]",3.33,43.5,0.76,0.74,1.69,0.52,1.46,1.67,1.72,477,3.69
"CC(C)Oc1nn(CCO)c2c1/C=C/c1n[nH]c3cc(F)c(cc13)-c1cnn(C)c1O[C@H](C)CN(C(C)C)C2 [Example 195, 2-{(10R,17E)-19-fluoro-8,10-dimethyl-12-(propan-2-yl)-16-[(propan-2-yl)oxy]-2,8,10,11,12,13-hexahydro-14H-3,5-ethenotripyrazolo[3,4-f:3′,4′-j:4″,3″- n][1,4]oxazacyclopentadecin-14-yl}ethan-1-ol]",99.7,156,18.6,8.68,39.9,6.18,3.67,36.6,53.5,435,22.3
"Cc1nn(CCO)c2c1/C=C/c1n[nH]c3cc(F)c(cc13)-c1cnn(C)c1O[C@@H](C)CN(C)C2 [Example 116, 2-[(10S,17E)-19-fluoro-8,10,12,16-tetramethyl-2,8,10,11,12,13-hexahydro-14H-3,5-ethenotripyrazolo[3,4-f:3′,4′-j:4″,3″-n][1,4]oxazacyclopentadecin-14-yl]ethan-1-ol]",3.98,18.5,1.06,2.85,0.58,0.38,2.71,0.11,0.04,10.9,0.4
"CCOc1noc2c1/C=C/c1n[nH]c3ccc(cc13)-c1cnn(C)c1O[C@@H](C)CN(C)C2 [Example 183, (10S,17E)-16-ethoxy-8,10,12-trimethyl-2,8,10,11,12,13-hexahydro-3,5-etheno[1,2]oxazolo[5,4-f]dipyrazolo[3,4-j:4′,3′-n][1,4]oxazacyclopentadecine]",195,534,53.8,17.7,61.5,0.65,1.05,0.82,0.24,155,1.83
"Cc1nn(C)c2c1/C=C/c1n[nH]c3ccc(cc13)-c1cnn(C)c1OCCN1CC[C@@H](O2)C1=O [Example 109, (10R,15E)-3,12,14-trimethyl-5,6,9,10,12,18-hexahydro-3H,8H-19,21-etheno-7,10-methanotripyrazolo[3,4-i:3′,4′-m:4″,3″-q][1,8,4]dioxazacyclooctadecin-24-one]",856,298,38,152,165,15.9,47.1,0.46,0.09,2,0.85

# Results, then the compound that gave them:
IC50 [1] [nM],IC50 [2] [nM],IC50 [3] [nM],IC50 [4] [nM],IC50 [5] [nM],IC50 [6] [nM],IC50 [7] [nM],IC50 [8] [nM],IC50 [9] [nM],IC50 [10] [nM],IC50 [11] [nM],Compound
13.6,25.3,3.5,3.74,4.55,0.9,3.19,4.9,5.21,361,3.15,"CCOc1nn(CCO)c2c1/C=C/c1n[nH]c3ccc(cc13)-c1cnn(C)c1O[C@@H](CC)CN(C)C2 [Example 260, 2-[(10S,17E)-16-ethoxy-10-ethyl-8,12-dimethyl-2,8,10,11,12,13-hexahydro-14H-3,5-ethenotripyrazolo[3,4-f:3′,4′-j:4″,3″-n][1,4]oxazacyclopentadecin-14-yl]ethan-1-ol]"
55.3,129,6.59,4.8,7.8,0.6,1.02,1.37,2.13,79.2,1.55,"CCOc1nn(CCO)c2c1/C=C/c1n[nH]c3ccc(cc13)-c1cnn(C)c1O[C@@H]1CCCN(C2)C1 [Example 137, 2-[(10R,19E)-18-ethoxy-8-methyl-2,10,11,12,13,15-hexahydro-3,5-etheno-10,14-methanotripyrazolo[3,4-h:3′,4′-l:4″,3″-p][1,6]oxazacycloheptadecin-16(8H)-yl]ethan-1-ol]"
51.8,65.4,5.39,1.44,12.2,0.57,0.21,1.11,0.49,77.7,1.92,"CC(C)Oc1nn(CCO)c2c1/C=C/c1n[nH]c3ccc(cc13)-c1cnn(C)c1OC(CF)CN(C)C2 (stereo not shown) [Example 225, 2-{(17E)-10-(fluoromethyl)-8,12-dimethyl-16-[(propan-2-yl)oxy]-2,8,10,11,12,13-hexahydro-14H-3,5-ethenotripyrazolo[3,4-f:3′,4′-j:4″,3″-n][1,4]oxazacyclopentadecin-14-yl}ethan-1-ol]"
